Measurements: PMC5578999, “Novel quinolone chalcones targeting colchicine-binding pocket kill multidrug-resistant cancer cells by inhibiting tubulin activity and MRP1 function” (Scientific Reports, 2017)

Experiments:
Assay type in all cases: cell-based
MCF 10AT1 = assay: SRB cell survival, MCF 10A isogenic lines; conditions: 0.39 μmol/L; MCF 10AT1 (premalignant)
Protocol: (§1) and MCF10AT1 cells were cultured in Dulbecco's Modified Eagle's Medium/Ham's Nutrient Mixture F-12 (DME/F12) supplemented with 10% (volume/volume) FBS , 100 μg/ml streptom ycin and 100 units/ml penicillin, antim ycotic solution, 0.5 μg/ml hydrocortisone, 10 ng/ml human epiderm al growth factor (hEGF) and 5 μg/ml insulin, whereas MCF10CA1a cell line was cultured in DM EM supplemented with 10% FBS (volume/volume). KB-3- 1, parental human epidermoid carcinoma cell line and KB-C2, an isogenic MDR1- overexpressing drug-resistant cell line, were kindl y provided b y Dr. Amit K Tiwari, the Universit y of Toledo, OH.
(§2) Parental HEK293 and M RP1- overexpressing HEK293- MRP1 isogenic cel ls were kind gifts of Dr. Susan Cole (Queen’s Universit y, Kingston, Ontario, Canada). The pacl itaxel-resistant MDA-MB-231TaxR cell line was generated in house b y culturing MDA-MB-231 cells (purchased from ATCC and authen ticated ) in the gradual l y incr easi ng con centr ations of pacl itax el until the concentration reached to 100 nM. Cell line authentication was carried out by Genetica DNA Laboratories (Burlington, NC) using a short tandem repeat (STR) profiling method (March 2015; […]
(§3) Cell viability, com binational i ndex and cell synchronization
(§4) Cell viability and proliferation were ex amined using a s ulforhodamine B (SRB) assa y as described previousl y (Hu et al., 2008). IC 50 values were calculat ed from si gmoidal dose-response cu rves gen erat ed b y at least two indepen dent ex periments , with each quadruplicate samples, using GraphPad Prism v.5.04 software (GraphPad Software, Inc, La J olla, CA). For combinational experiments on the KB -C-2 cells, CTR compounds and pacli taxel or ABT - 737/ABT-199 w ere us ed at or below IC 50 . The combinational index (CI) w as calculat ed as previousl y described (Chou, 2006). […]
(§5) Cell cycl e pro gr ession in the absence (sham) o r pr esence o f compound(s ) was determined with a Beckman Coulter Epics Elite FC 500 Flow C ytom eter as described previousl y (Romero

MCF 10A = assay: SRB cell survival, MCF 10A isogenic lines; conditions: 0.39 μmol/L; MCF 10A (non-cancer)
Protocol: as §1, §2, §3, §4, §5

MCF 10CA1a = assay: SRB cell survival, MCF 10A isogenic lines; conditions: 0.39 μmol/L; MCF 10AC1a (fully malignant)
Protocol: as §1, §2, §3, §4, §5

MDR1 = assay: Rh123 dye efflux assay, KB-C-2 cells; conditions: MDR1, KB-C-2 cells; 22 µmol/L of drug; DMSO control 58.0%
Protocol: Rhodamine123 (Rh123) drug efflux was carried out using a Multidrug-Resistance Direct Dye Efflux Activity Kit (Millipore, Darmstadt, Germany), with some modifications. […] Reading was carried out with a Beckman Coulter FC500 flow cytometer.

HCT-15 = assay: NCI-60 SRB screen
NCI-H226 = assay: NCI-60 SRB screen
NCI-H322M = assay: NCI-60 SRB screen
OVCAR-5 = assay: NCI-60 SRB screen
RPMI-8226 = assay: NCI-60 SRB screen
SW-620 = assay: NCI-60 SRB screen
[1] = Homo sapiens, read-out: LC50 (the source's name)

**Q.** With `COc1ccc2[nH]c(=O)c(/C=C/C(=O)c3ccccc3OC)cc2c1` [CTR-20, (E)-6-Methoxy-3-(3-(2-methoxyphenyl)-3-oxoprop-1-enyl) quinolin-2(1H)-one] as the compound, how does the cell survival rate (MCF 10AT1) read?
**A.** Its cell survival rate is 20%.

**Q.** And the cell survival rate (MCF 10A)?
**A.** The cell survival rate was 75%.

**Q.** And the cell survival rate (MCF 10CA1a)?
**A.** The cell survival rate was 10%.

**Q.** What about the Rh123 retention (MDR1) of the same compound?
**A.** Its Rh123 retention is 57.9%.

**Q.** And the Log10GI50 (HCT-15)?
**A.** Its Log10GI50 is -6.40 Molar.

**Q.** What about the Log10LC50 (HCT-15) of the same compound?
**A.** Its Log10LC50 is -5.08 Molar.

**Q.** What about the Log10TGI (HCT-15) of the same compound?
**A.** The Log10TGI was -5.69 Molar.

**Q.** What about the TGI (HCT-15) of the same compound?
**A.** The TGI was 2.05E-6 Molar.

**Q.** What about the “Growth Percent” value (HCT-15; 1.00E-5 Molar) of the same compound?
**A.** The value was 11.32%.

**Q.** And the GI50 (HCT-15; Homo sapiens)?
**A.** The GI50 was 395 nM.

**Q.** And the LC50 (HCT-15; Homo sapiens)?
**A.** Its LC50 is 8.29 µM.

**Q.** And the “Percent Growth” value (HCT-15; Log10 Concentration -4.0)?
**A.** Its value is -85%.

**Q.** What about the “Percent Growth” value (HCT-15; Log10 Concentration -5.0) of the same compound?
**A.** Its value is -57%.

**Q.** And the “Percent Growth” value (HCT-15; Log10 Concentration -6.0)?
**A.** Its value is 26%.

**Q.** What about the “Percent Growth” value (HCT-15; Log10 Concentration -7.0) of the same compound?
**A.** Its value is 86%.

**Q.** What about the “Percent Growth” value (HCT-15; Log10 Concentration -8.0) of the same compound?
**A.** The value was 95%.

**Q.** What about the Log10GI50 (NCI-H226) of the same compound?
**A.** The Log10GI50 was -5.48 Molar.

**Q.** What about the Log10LC50 (NCI-H226) of the same compound?
**A.** Its Log10LC50 is greater than -4.00 Molar.

**Q.** And the Log10TGI (NCI-H226)?
**A.** Its Log10TGI is -4.73 Molar.

**Q.** What about the TGI (NCI-H226) of the same compound?
**A.** Its TGI is 1.85E-5 Molar.

**Q.** And the “Growth Percent” value (NCI-H226; 1.00E-5 Molar)?
**A.** Its value is 38.93%.

**Q.** What about the GI50 (NCI-H226; Homo sapiens) of the same compound?
**A.** Its GI50 is 3.34 µM.

**Q.** What about the CC50 (NCI-H226; [1]) of the same compound?
**A.** Its CC50 is greater than 100 µM.

**Q.** What about the “Percent Growth” value (NCI-H226; Log10 Concentration -4.0) of the same compound?
**A.** The value was -47%.

**Q.** And the “Percent Growth” value (NCI-H226; Log10 Concentration -5.0)?
**A.** The value was 17%.

**Q.** What about the “Percent Growth” value (NCI-H226; Log10 Concentration -6.0) of the same compound?
**A.** The value was 86%.

**Q.** And the “Percent Growth” value (NCI-H226; Log10 Concentration -7.0)?
**A.** Its value is 99%.

**Q.** And the “Percent Growth” value (NCI-H226; Log10 Concentration -8.0)?
**A.** Its value is 96%.

**Q.** What about the Log10GI50 (NCI-H322M) of the same compound?
**A.** The Log10GI50 was -5.62 Molar.

**Q.** What about the Log10LC50 (NCI-H322M) of the same compound?
**A.** The Log10LC50 was -4.48 Molar.

**Q.** What about the Log10TGI (NCI-H322M) of the same compound?
**A.** The Log10TGI was -4.98 Molar.

**Q.** What about the TGI (NCI-H322M) of the same compound?
**A.** Its TGI is 1.04E-5 Molar.

**Q.** What about the “Growth Percent” value (NCI-H322M; 1.00E-5 Molar) of the same compound?
**A.** The value was 18.31%.

**Q.** What about the GI50 (NCI-H322M; Homo sapiens) of the same compound?
**A.** Its GI50 is 2400 nM.

**Q.** And the CC50 (NCI-H322M; [1])?
**A.** The CC50 was 33.5 µM.

**Q.** And the “Percent Growth” value (NCI-H322M; Log10 Concentration -4.0)?
**A.** Its value is -97%.

**Q.** What about the “Percent Growth” value (NCI-H322M; Log10 Concentration -5.0) of the same compound?
**A.** Its value is 2%.

**Q.** What about the “Percent Growth” value (NCI-H322M; Log10 Concentration -6.0) of the same compound?
**A.** Its value is 80%.

**Q.** What about the “Percent Growth” value (NCI-H322M; Log10 Concentration -7.0) of the same compound?
**A.** The value was 93%.

**Q.** And the “Percent Growth” value (NCI-H322M; Log10 Concentration -8.0)?
**A.** Its value is 94%.

**Q.** And the Log10GI50 (OVCAR-5)?
**A.** Its Log10GI50 is -5.71 Molar.

**Q.** What about the Log10LC50 (OVCAR-5) of the same compound?
**A.** The Log10LC50 was -4.33 Molar.

**Q.** And the Log10TGI (OVCAR-5)?
**A.** Its Log10TGI is -4.98 Molar.

**Q.** What about the TGI (OVCAR-5) of the same compound?
**A.** Its TGI is 1.04E-5 Molar.

**Q.** And the “Growth Percent” value (OVCAR-5; 1.00E-5 Molar)?
**A.** The value was 12.07%.

**Q.** And the GI50 (OVCAR-5; Homo sapiens)?
**A.** The GI50 was 1970 nM.

**Q.** And the CC50 (OVCAR-5; [1])?
**A.** The CC50 was 46.6 µM.

**Q.** What about the “Percent Growth” value (OVCAR-5; Log10 Concentration -4.0) of the same compound?
**A.** Its value is -75%.

**Q.** What about the “Percent Growth” value (OVCAR-5; Log10 Concentration -5.0) of the same compound?
**A.** The value was 1%.

**Q.** And the “Percent Growth” value (OVCAR-5; Log10 Concentration -6.0)?
**A.** Its value is 70%.

**Q.** What about the “Percent Growth” value (OVCAR-5; Log10 Concentration -7.0) of the same compound?
**A.** Its value is 98%.

**Q.** And the “Percent Growth” value (OVCAR-5; Log10 Concentration -8.0)?
**A.** The value was 93%.

**Q.** What about the Log10GI50 (RPMI-8226) of the same compound?
**A.** The Log10GI50 was -6.41 Molar.

**Q.** What about the Log10LC50 (RPMI-8226) of the same compound?
**A.** Its Log10LC50 is greater than -4.00 Molar.

**Q.** And the Log10TGI (RPMI-8226)?
**A.** The Log10TGI was -5.66 Molar.

**Q.** And the TGI (RPMI-8226)?
**A.** Its TGI is 2.21E-6 Molar.

**Q.** What about the “Growth Percent” value (RPMI-8226; 1.00E-5 Molar) of the same compound?
**A.** Its value is 5.61%.

**Q.** And the GI50 (RPMI-8226; Homo sapiens)?
**A.** The GI50 was 385 nM.

**Q.** And the CC50 (RPMI-8226; [1])?
**A.** Its CC50 is greater than 100 µM.

**Q.** What about the “Percent Growth” value (RPMI-8226; Log10 Concentration -4.0) of the same compound?
**A.** Its value is -37%.

**Q.** And the “Percent Growth” value (RPMI-8226; Log10 Concentration -5.0)?
**A.** Its value is -20%.

**Q.** What about the “Percent Growth” value (RPMI-8226; Log10 Concentration -6.0) of the same compound?
**A.** Its value is 10%.

**Q.** What about the “Percent Growth” value (RPMI-8226; Log10 Concentration -7.0) of the same compound?
**A.** The value was 106%.

**Q.** What about the “Percent Growth” value (RPMI-8226; Log10 Concentration -8.0) of the same compound?
**A.** Its value is 113%.

**Q.** And the Log10GI50 (SW-620)?
**A.** The Log10GI50 was -6.47 Molar.

**Q.** And the Log10LC50 (SW-620)?
**A.** The Log10LC50 was -4.31 Molar.

**Q.** And the Log10TGI (SW-620)?
**A.** Its Log10TGI is -5.65 Molar.

**Q.** And the TGI (SW-620)?
**A.** The TGI was 2.24E-6 Molar.

**Q.** What about the “Growth Percent” value (SW-620; 1.00E-5 Molar) of the same compound?
**A.** Its value is 8.40%.

**Q.** What about the GI50 (SW-620; Homo sapiens) of the same compound?
**A.** Its GI50 is 335 nM.

**Q.** What about the LC50 (50% lethal concentration) (SW-620; Homo sapiens) of the same compound?
**A.** The LC50 (50% lethal concentration) was 49.4 µM.

**Q.** What about the “Percent Growth” value (SW-620; Log10 Concentration -4.0) of the same compound?
**A.** Its value is -58%.

**Q.** And the “Percent Growth” value (SW-620; Log10 Concentration -5.0)?
**A.** Its value is -31%.

**Q.** And the “Percent Growth” value (SW-620; Log10 Concentration -6.0)?
**A.** The value was 17%.

**Q.** And the “Percent Growth” value (SW-620; Log10 Concentration -7.0)?
**A.** Its value is 87%.

**Q.** What about the “Percent Growth” value (SW-620; Log10 Concentration -8.0) of the same compound?
**A.** The value was 98%.
